Results reported in US8815535B2, “Disk diffusion assay for oritavancin” (The Medicines Company, priority 2011, dated 2014).
Read-outs that look alike come from different tables or passages of the source.

Tests used:
MSSA ATCC 25923 = assay: Disk diffusion assay (zone of inhibition); type: cell-based, Staphylococcus aureus; settings: Staphylococcus aureus; for zone of inhibition at 100 µg/disc: 100 μg in 4% P80/Span 80 (1:1); for zone of inhibition at 200 µg/disc: 200 μg in 4% P80/Span 80 (1:1); for zone of inhibition at 180 µg/disc: 180 μg; for zone of inhibition at 270 µg/disc: 270 μg
Excerpt: (§1) The study was designed to identify conditions that improve oritavancin diffusion in agar and consequently yield a zone diameter ≧15 mm for the CLSI quality control strain MSSA ATCC 25923. Excipients that increased the disk diffusion of oritavancin in agar relative to disks containing only oritavancin were identified and selected for further study. […] A prediffusion step at room temperature was introduced to maximize oritavancin diffusion prior to initiation of bacterial growth. In this step, the antimicrobial disks were placed on agar plates seeded with a bacterial isolate and incubated at room temperature for 3 hours. Plates were then incubated overnight at 37° C. Zone diameters around the disks in which bacterial growth was inhibited were measured with a ruler and reported in millimeters.
(§2) Ethanol-sterilized Whatman paper disks (6 mm diameter) were allowed to dry then impregnated with 20 microliters of oritavancin solution containing total amounts ranging from 90 to 360 micrograms. Disks were allowed to dry at room temperature for various times prior to use.
Bacterial suspensions were prepared and adjusted to an optical density of 0.1 at 600 nm. […] The plate was swabbed a second time, perpendicular to the orientation of the first swab. To assess the impact of prediffusion on diameter of inhibition zones, two disks were immediately placed on one half of the plate and the plate was incubated for 3 hours at room temperature. After 3 hours, two additional disks were placed on the other half of the plate then the plate was incubated overnight at 37° C. Zone diameters were measured with a ruler and reported in millimeters. […]
Oritavancin powder was dissolved in freshly-prepared solutions of the indicated excipients at concentrations of 0.625, 1.25, 2.5, 5, and 10 mg/ml (adjusted for potency based on lot 875561L00 purity of 83.1%) by vortexing for a minimum of 5 minutes. Oritavancin solutions in the various excipients, while not visually clear, were free from any apparent particulates as assessed visually. Sterile Oxoid blank disks were impregnated with 20 μl of these oritavancin solutions, resulting in oritavancin disk loads ranging from 12.5 to 200 μg. Unless indicated otherwise, disks were allowed to dry overnight at room temperature prior to use.
[…] Swabbing was continued at a right angle and then at an oblique angle to the first and second swabs. Disks were placed upon the seeded plates with sterile forceps. Plates were then incubated overnight at 37° C. and inhibition zone diameters were measured with a ruler and reported in millimeters.

VISA Mu50 (ATCC 700699) = assay: Disk diffusion assay (zone of inhibition); type: cell-based; settings: Staphylococcus aureus, Oxoid disks, 20 μl of 18 mg/ml oritavancin in 5% P80, stored 30 days at room temperature, prediffusion 6 hours at 4° C., read-out: Inhibition zone diameter
NRS123 and NRS2 = assay: Disk diffusion assay, difference in zone diameter between two isolates; type: cell-based, Staphylococcus aureus
Excerpt: as §1, §2
Bacterial suspensions were prepared and adjusted to an optical density of 0.1 at 600 nm. Standard cation-adjusted Mueller Hinton agar plates (90 mm diameter) were seeded with bacterial suspensions by initially swabbing the center of plate then moving outward towards the edge. The plate was swabbed a second time, perpendicular to the orientation of the first swab. To assess the impact of prediffusion on diameter of inhibition zones, two disks were immediately placed on one half of the plate and the plate was incubated for 3 hours at room temperature. After 3 hours, two additional disks were placed on the other half of the plate then the plate was incubated overnight at 37° C. Zone diameters were measured with a ruler and reported in millimeters.

[1] = read-out: Inhibition zone diameter, 25923, calcium alginate swab, dried overnight
[2] = read-out: Inhibition zone diameter, 25923, cotton swab, dried overnight, estimate of diameter
[3] = read-out: Inhibition zone diameter, MSSA ATCC 25923, Oxoid disk, 2.5% P80, stored 7 days, prediffusion 3 h at 4° C., duplicates
[4] = read-out: Inhibition zone diameter, MSSA ATCC 25923, Oxoid disk, 5% P80, stored 7 days, prediffusion 3 h at 4° C., duplicates
[5] = read-out: Inhibition zone diameter, MSSA ATCC 25923, Whatman #5 disk, 2.5% P80, stored 7 days, prediffusion 3 h at 4° C., duplicates
[6] = read-out: Inhibition zone diameter, MSSA ATCC 25923, Whatman #5 disk, 5% P80, stored 7 days, prediffusion 3 h at 4° C., duplicates

## CN[C@H](CC(C)C)C(=O)N[C@H]1C(=O)N[C@@H](CC(N)=O)C(=O)N[C@H]2C(=O)N[C@H]3C(=O)N[C@H](C(=O)N[C@H](C(=O)O)c4cc(O)cc(O)c4-c4cc3ccc4O)[C@H](O[C@H]3C[C@](C)(N)[C@@H](O)[C@H](C)O3)c3ccc(c(Cl)c3)Oc3cc2cc(c3O[C@@H]2O[C@H](CO)[C@@H](O)[C@H](O)[C@H]2O[C@H]2C[C@](C)(NCc3ccc(-c4ccc(Cl)cc4)cc3)[C@@H](O)[C@H](C)O2)Oc2ccc(cc2Cl)[C@H]1O [oritavancin, N-(4-(4-chlorophenyl)benzyl)A82846B]
MSSA ATCC 25923; read-out: Inhibition zone diameter, 25923, 50 μg in 4% P80/Span 80 (1:1), cotton swab, dried overnight, estimate of diameter
  zone of inhibition at 50 µg/disc: 24 mm
MSSA ATCC 25923; [1]
  zone of inhibition at 100 µg/disc: 14 mm
  zone of inhibition at 200 µg/disc: 11 mm
MSSA ATCC 25923; [2]
  zone of inhibition at 100 µg/disc: 21 mm
  zone of inhibition at 200 µg/disc: 15 mm
MSSA ATCC 25923; read-out: Inhibition zone diameter, ATCC 25923, 25 μg (20 μl of 1.25 mg/ml) in 4% P80/Span 80 (1:1), calcium alginate swab, dried overnight
  zone of inhibition at 1250 µg/mL: 21 mm
MSSA ATCC 25923; read-out: Inhibition zone diameter, ATCC 25923, 50 μg, 4% P80/Span 80 ratio 50:50, dried overnight, estimate of diameter
  zone of inhibition at 50 µg/disc: 23 mm
MSSA ATCC 25923; read-out: Inhibition zone diameter, ATCC 25923, 50 μg, 4% P80/Span 80 ratio 60:40, dried overnight, estimate of diameter
  zone of inhibition at 50 µg/disc: 21 mm
MSSA ATCC 25923; read-out: Inhibition zone diameter, ATCC 25923, 50 μg, 4% P80/Span 80 ratio 70:30, dried overnight, estimate of diameter
  zone of inhibition at 50 µg/disc: 19 mm
MSSA ATCC 25923; read-out: Inhibition zone diameter, ATCC 25923, 50 μg, 4% P80/Span 80 ratio 80:20, dried overnight, estimate of diameter
  zone of inhibition at 50 µg/disc: 16 mm
MSSA ATCC 25923; read-out: Inhibition zone diameter, ATCC 25923, 50 μg, 4% P80/Span 80 ratio 90:10, dried overnight, estimate of diameter
  zone of inhibition at 50 µg/disc: 13 mm
MSSA ATCC 25923; read-out: Inhibition zone diameter, ATCC 25923, 20 μl of 1.25 mg/ml oritavancin in 1% poly(ethylene glycol) sorbitol hexaoleate
  zone of inhibition at 1250 µg/mL: ≤ 15 mm
MSSA ATCC 25923; read-out: Inhibition zone diameter, ATCC 25923, 20 μl of 1.25 mg/ml oritavancin in 5% Brij 30
  zone of inhibition at 1250 µg/mL: ≤ 15 mm
MSSA ATCC 25923; read-out: Inhibition zone diameter, ATCC 25923, 20 μl of 1.25 mg/ml oritavancin in 5% Merpol SE
  zone of inhibition at 1250 µg/mL: ≤ 15 mm
MSSA ATCC 25923; read-out: Inhibition zone diameter, ATCC 25923, Oxoid disks, 20 μl of 18 mg/ml oritavancin in 5% P80, stored 30 days at room temperature, prediffusion 6 hours at 4° C.
  zone of inhibition at 18000 µg/mL: > 15 mm
MSSA ATCC 25923; read-out: Inhibition zone diameter, MSSA ATCC 25923, 20 μl of 1.25 mg/ml in 4% P80/Span 80 (1:1), cotton swab (FIG. 2), dried overnight
  zone of inhibition at 1250 µg/mL: ~24 mm
MSSA ATCC 25923; read-out: Inhibition zone diameter, MSSA ATCC 25923, 20 μl of 1.25 mg/ml in 4% P80/Span 80 (1:1), flocked swab (FIG. 2), dried overnight
  zone of inhibition at 1250 µg/mL: ~24 mm
MSSA ATCC 25923; read-out: Inhibition zone diameter, MSSA ATCC 25923, 20 μl of 1.25 mg/ml in 4% P80/Span 80 (1:1), foam swab (FIG. 2), dried overnight
  zone of inhibition at 1250 µg/mL: ~26 mm
MSSA ATCC 25923; read-out: Inhibition zone diameter, MSSA ATCC 25923, 20 μl of 1.25 mg/ml in 4% P80/Span 80 (1:1), polyester swab (FIG. 2), dried overnight
  zone of inhibition at 1250 µg/mL: ~24 mm
MSSA ATCC 25923; read-out: Inhibition zone diameter, MSSA ATCC 25923, 20 μl of 1.25 mg/ml in 4% P80/Span 80 (1:1), rayon swab (FIG. 2), dried overnight
  zone of inhibition at 1250 µg/mL: ~22 mm
MSSA ATCC 25923; [3]
  zone of inhibition at 180 µg/disc: 12.5 mm
  zone of inhibition at 270 µg/disc: 13 mm
MSSA ATCC 25923; [4]
  zone of inhibition at 180 µg/disc: 12 mm
  zone of inhibition at 270 µg/disc: 13 mm
MSSA ATCC 25923; read-out: Inhibition zone diameter, MSSA ATCC 25923, Oxoid disk, 360 μg, 2.5% P80, stored 7 days, prediffusion 3 h at 4° C., duplicates
  zone of inhibition at 360 µg/disc: 13 mm
MSSA ATCC 25923; read-out: Inhibition zone diameter, MSSA ATCC 25923, Oxoid disk, 360 μg, 5% P80, stored 7 days, prediffusion 3 h at 4° C., duplicates
  zone of inhibition at 360 µg/disc: 14 mm
MSSA ATCC 25923; [5]
  zone of inhibition at 180 µg/disc: 15.5 mm
  zone of inhibition at 270 µg/disc: 15.5 mm
MSSA ATCC 25923; [6]
  zone of inhibition at 180 µg/disc: 14.5 mm
  zone of inhibition at 270 µg/disc: 16 mm
MSSA ATCC 25923; read-out: Inhibition zone diameter, MSSA ATCC 25923, Whatman #5 disk, 360 μg, 2.5% P80, stored 7 days, prediffusion 3 h at 4° C., duplicates
  zone of inhibition at 360 µg/disc: 15.5 mm
MSSA ATCC 25923; read-out: Inhibition zone diameter, MSSA ATCC 25923, Whatman #5 disk, 360 μg, 5% P80, stored 7 days, prediffusion 3 h at 4° C., duplicates
  zone of inhibition at 360 µg/disc: 16 mm
MSSA ATCC 25923; read-out: Zone diameter (mm ± SD), ATCC 25923, 360 μg in 5% P80, Average of experiments, no prediffusion
  zone of inhibition at 360 µg/disc: 14.9 ± 0.5 mm
MSSA ATCC 25923; read-out: Zone diameter (mm ± SD), ATCC 25923, 360 μg in 5% P80, Average of experiments, prediffusion
  zone of inhibition at 360 µg/disc: 17.5 ± 0.6 mm
MSSA ATCC 25923; read-out: Zone diameter (mm ± SD), ATCC 25923, 360 μg in 5% P80, Experiment 1, disks stored 14 days, 3 h prediffusion at room temperature
  zone of inhibition at 360 µg/disc: 18 mm
MSSA ATCC 25923; read-out: Zone diameter (mm ± SD), ATCC 25923, 360 μg in 5% P80, Experiment 2, disks stored 8 days, 3 h prediffusion at room temperature
  zone of inhibition at 360 µg/disc: 17 mm
VISA Mu50 (ATCC 700699)
  zone of inhibition at 18000 µg/mL: 13 mm
NRS123 and NRS2; 90 μg oritavancin, 2.5% P80
  Difference in diameter (NRS2 subtracted from NRS123): 1.8 mm
NRS123 and NRS2; 90 μg oritavancin, 5% P80
  Difference in diameter (NRS2 subtracted from NRS123): 1 mm
NRS123 and NRS2; 90 μg oritavancin, 10% P80
  Difference in diameter (NRS2 subtracted from NRS123): −0.3 mm
NRS123 and NRS2; 180 μg oritavancin, 2.5% P80
  Difference in diameter (NRS2 subtracted from NRS123): 1.7 mm
NRS123 and NRS2; 180 μg oritavancin, 5% P80
  Difference in diameter (NRS2 subtracted from NRS123): 1.3 mm
NRS123 and NRS2; 180 μg oritavancin, 10% P80
  Difference in diameter (NRS2 subtracted from NRS123): 1.3 mm
NRS123 and NRS2; 360 μg oritavancin, 2.5% P80
  Difference in diameter (NRS2 subtracted from NRS123): 1.8 mm
NRS123 and NRS2; 360 μg oritavancin, 5% P80
  Difference in diameter (NRS2 subtracted from NRS123): 0.5 mm
NRS123 and NRS2; 360 μg oritavancin, 10% P80
  Difference in diameter (NRS2 subtracted from NRS123): 1 mm
